Reference: US11724997B2, “Compounds and compositions for treating conditions associated with APJ receptor activity” (Annapurna Bio, Inc., priority 2018, dated 2023)

Biological target: T1, APJ Receptor (Homo sapiens, UniProt P35414)
T1 sequence (P35414 1-380): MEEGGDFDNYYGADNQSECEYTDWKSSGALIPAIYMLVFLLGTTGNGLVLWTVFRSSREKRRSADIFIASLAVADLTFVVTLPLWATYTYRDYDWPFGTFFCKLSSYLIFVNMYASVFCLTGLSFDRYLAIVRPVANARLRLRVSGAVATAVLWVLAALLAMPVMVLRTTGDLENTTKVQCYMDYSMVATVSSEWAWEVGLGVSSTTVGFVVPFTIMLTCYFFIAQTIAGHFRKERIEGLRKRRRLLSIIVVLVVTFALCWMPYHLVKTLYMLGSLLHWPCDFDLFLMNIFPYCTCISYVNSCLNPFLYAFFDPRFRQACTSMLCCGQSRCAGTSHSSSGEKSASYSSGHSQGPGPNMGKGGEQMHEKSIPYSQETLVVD
Experiment: APJ cAMP assay: inhibition of forskolin-stimulated cAMP, enzyme fragment complementation, in CHO-K1 cells stably expressing the APJ Receptor
Format: cell-based
Conditions: CHO-K1 cell line (DiscoverX) stably expressing APJ Receptor; EC80 forskolin; 30 minutes at 37° C.; read-out: APJ cAMP EC50 Potency range
Description: Activation of APJ receptor is known to inhibit forskolin-stimulated cyclic AMP (cAMP) production in cells in a pertussis toxin-sensitive manner which indicates primary coupling to the GαI subunit of the G protein heterotrimeric complex. In addition to signaling through G protein and inhibition of cAMP, APJ receptor activation also results in β-arrestin recruitment, receptor internalization and activation of extracellular-regulated kinases (ERKs).
In order to optimize functional activity directed toward Gi coupling we utilized a CHO-K1 cell line developed by DiscoverX stably expressing the APJ Receptor. Cells expressing APJR receptor were plated in a 384-well microtiter plates and incubated overnight at 37° C. with 5% CO2 to allow the cells to attach and grow. Media was then aspirated from the cells and replaced with 15 uL 2:1 Hanks Balanced Salt Solution (HBSS)/10 mM Hepes. cAMP XS+ Ab reagent. Five microliters (5 uL) of previously generated compound sample stocks at 4× final concentration in assay buffer containing 4×EC80 forskolin were then added to the cells and allowed to incubate at 37° C. for 30 minutes.
After incubation the assay signal was generated using a technology termed enzyme fragment complementation (EFC). In EFC the enzyme B-galactosidase is split into two complementary portions (EA and ED). The fragment ED is fused to cAMP and in the assay format competes with endogenous cAMP for binding to a cAMP specific antibody. Activated B-Gal is formed when exogenous EA fragment binds to free ED-cAMP (not bound to cAMP specific antibody). Activated enzyme levels are detected through conversion of B-gal chemiluminescent substrate which generates a detectable luminescence signal and read on standard microtiter plate.
The methodology for detection of cAMP using EFC requires incubation with 20 uL of cAMP XS+ ED/CL lysis cocktail for one hour followed by incubation with 20 uL cAMP XS+ EA reagent for three hours at room temperature. Microplates were read following signal generation with a PerkinElmer Envision instrument utilizing chemiluminescent signal detection.
Compound activity was analyzed using CBIS data analysis suite (ChemInnovation, CA).
Percentage activity was calculated using the following formula: % Activity=[…]×(1−(mean RLU of test sample−mean RLU of Max control)/(mean RLU of vehicle control−mean RLU of Max control))
The biological activity of the exemplified compounds of this invention determined by the assay described above is shown in Table 1. The APJ cAMP EC50 potency ranges are as follows: A: EC50<1 nM; B: 1≤EC50<100 nM; and C: 100≤EC50<10,000 nM.

Compound | EC50 [nM]
COc1cccc(-c2nnc(C(=O)NS(=O)(=O)Cc3ccccc3)n2-c2c(OC)cccc2C(F)(F)F)n1 [Example 62, N-(benzylsulfonyl)-4-(2-methoxy-6-(trifluoromethyl)phenyl)-5-(6-methoxypyridin-2-yl)-4H-1,2,4-triazole-3-carboxamide] | 1 to 100
COc1cccc(OC)c1-n1c(C(=O)NS(=O)(=O)Cc2ncccn2)nnc1-c1cc(C)ccn1 [Example 25, 4-(2,6-Dimethoxyphenyl)-5-(4-methylpyridin-2-yl)-N-((pyrimidin-2-ylmethyl)sulfonyl)-4H-1,2,4-triazole-3-carboxamide] | 100 to 10000
CCOc1cccc(-c2nnc(C(=O)N(C)S(=O)(=O)Cc3ccccc3)n2-c2c(OC)cccc2OC)n1 [Example 8, N-(benzylsulfonyl)-4-(2,6-dimethoxyphenyl)-5-(6-ethoxypyridin-2-yl)-N-methyl-4H-1,2,4-triazole-3-carboxamide] | 1 to 100
COc1cccc(-c2nnc(C(=O)NS(=O)(=O)[C@H](C)c3ccccc3)n2-c2c(OC)cccc2OC)n1 (single isomer, unassigned) [Example 33] | 1 to 100
COc1cccc(OC)c1-n1c(C(=O)NS(=O)(=O)Cc2ncccn2)nnc1-c1cccc(OC(F)(F)F)n1 [Example 58, 4-(2,6-Dimethoxyphenyl)-N-((pyrimidin-2-ylmethyl)sulfonyl)-5-(6-(trifluoromethoxy)pyridin-2-yl)-4H-1,2,4-triazole-3-carboxamide] | 1 to 100
COc1cccc(OC)c1-n1c(C(=O)NS(=O)(=O)Cc2ccccc2)nnc1-c1cc(C2CC2)no1 [Example 11, N-(benzylsulfonyl)-5-(3-cyclopropylisoxazol-5-yl)-4-(2,6-dimethoxyphenyl)-4H-1,2,4-triazole-3-carboxamide] | 100 to 10000
COc1cccc(-c2nnc(C(=O)NS(=O)(=O)Cc3ccccc3)n2-c2c(F)cccc2OC)n1 [Example 63, N-(benzylsulfonyl)-4-(2-fluoro-6-methoxyphenyl)-5-(6-methoxypyridin-2-yl)-4H-1,2,4-triazole-3-carboxamide] | 1 to 100
COc1cccc(-c2nnc(C(=O)NS(=O)(=O)CC3CC3)n2-c2c(OC)cccc2OC)n1 [Example 35, N-((cyclopropylmethyl)sulfonyl)-4-(2,6-dimethoxyphenyl)-5-(6-methoxypyridin-2-yl)-4H-1,2,4-triazole-3-carboxamide] | 1 to 100
COc1cccc(OC)c1-n1c(C(=O)NS(=O)(=O)Cc2ccccc2)nnc1-c1cccc(OC2CCC2)n1 [Example 18, N-(benzylsulfonyl)-5-(6-cyclobutoxypyridin-2-yl)-4-(2,6-dimethoxyphenyl)-4H-1,2,4-triazole-3-carboxamide] | 1 to 100
COc1cccc(-c2nnc(C(=O)NS(=O)(=O)Cc3ccccc3)n2-c2c(F)cccc2F)n1 [Example 61, N-(benzylsulfonyl)-4-(2,6-difluorophenyl)-5-(6-methoxypyridin-2-yl)-4H-1,2,4-triazole-3-carboxamide] | 100 to 10000
COc1cccc(-c2nnc(C(=O)NS(=O)(=O)Cc3cnccn3)n2-c2c(OC)cccc2OC)n1 [Example 37, 4-(2,6-Dimethoxyphenyl)-5-(6-methoxypyridin-2-yl)-N-((pyrazin-2-ylmethyl)sulfonyl)-4H-1,2,4-triazole-3-carboxamide] | 1 to 100
COc1cccc(OC)c1-n1c(C(=O)NS(=O)(=O)Cc2ncc(C)cn2)nnc1-c1ccc(C)cn1 [Example 24, 4-(2,6-Dimethoxyphenyl)-5-(5-methylpyridin-2-yl)-N-(((5-methylpyrimidin-2-yl)methyl)sulfonyl)-4H-1,2,4-triazole-3-carboxamide] | 100 to 10000
CCOCc1nnc(C(=O)NS(=O)(=O)Cc2ccccc2)n1-c1c(OC)cccc1OC [Example 7, N-(benzylsulfonyl)-4-(2,6-dimethoxyphenyl)-5-(ethoxymethyl)-4H-1,2,4-triazole-3-carboxamide] | 100 to 10000
COc1cccc(OC)c1-n1c(C(=O)NS(=O)(=O)Cc2ccccc2)nnc1-c1ccc(C)o1 [Example 16, N-(benzylsulfonyl)-4-(2,6-dimethoxyphenyl)-5-(5-methylfuran-2-yl)-4H-1,2,4-triazole-3-carboxamide] | 1 to 100

More lines, now with the values ahead:

EC50 [nM] | Compound
< 1 | CCOc1cccc(-c2nnc(C(=O)NS(=O)(=O)Cc3ncc(C)cn3)n2-c2c(OC)cccc2OC)n1 [Example 38, 4-(2,6-Dimethoxyphenyl)-5-(6-ethoxypyridin-2-yl)-N-(((5-methylpyrimidin-2-yl)methyl)sulfonyl)-4H-1,2,4-triazole-3-carboxamide]
< 1 | CCOc1cccc(-c2nnc(C(=O)NS(=O)(=O)C[C@@H](C)c3ccccc3)n2-c2c(OC)cccc2OC)n1 (single isomer, unassigned) [Example 45]
< 1 | CCOc1cccc(-c2nnc(C(=O)NS(=O)(=O)Cc3cccnc3)n2-c2c(OC)cccc2OC)n1 [Example 56, 4-(2,6-Dimethoxyphenyl)-5-(6-ethoxypyridin-2-yl)-N-((pyridin-3-ylmethyl)sulfonyl)-4H-1,2,4-triazole-3-carboxamide]
< 1 | CCOc1cccc(-c2nnc(C(=O)NS(=O)(=O)Cc3ncn(C)n3)n2-c2c(OC)cccc2OC)n1 [Example 54, 4-(2,6-Dimethoxyphenyl)-5-(6-ethoxypyridin-2-yl)-N-(((1-methyl-1H-1,2,4-triazol-3-yl)methyl)sulfonyl)-4H-1,2,4-triazole-3-carboxamide]
< 1 | COc1cccc(-c2nnc(C(=O)NS(=O)(=O)Cc3ncc(C)cn3)n2-c2c(OC)cccc2OC)n1 [Example 27, 4-(2,6-Dimethoxyphenyl)-5-(6-methoxypyridin-2-yl)-N-(((5-methylpyrimidin-2-yl)methyl)sulfonyl)-4H-1,2,4-triazole-3-carboxamide]
< 1 | CCOc1cccc(-c2nnc(C(=O)NS(=O)(=O)Cc3ncc(F)cn3)n2-c2c(OC)cccc2OC)n1 [Example 42, 4-(2,6-Dimethoxyphenyl)-5-(6-ethoxypyridin-2-yl)-N-(((5-fluoropyrimidin-2-yl)methyl)sulfonyl)-4H-1,2,4-triazole-3-carboxamide]
< 1 | COc1cccc(-c2nnc(C(=O)NS(=O)(=O)Cc3ccccn3)n2-c2c(OC)cccc2OC)n1 [Example 28, 4-(2,6-Dimethoxyphenyl)-5-(6-methoxypyridin-2-yl)-N-((pyridin-2-ylmethyl)sulfonyl)-4H-1,2,4-triazole-3-carboxamide]
< 1 | CCOc1cccc(-c2nnc(C(=O)NS(=O)(=O)CCc3cccnc3)n2-c2c(OC)cccc2OC)n1 [Example 50, 4-(2,6-Dimethoxyphenyl)-5-(6-ethoxypyridin-2-yl)-N-((2-(pyridin-3-yl)ethyl)sulfonyl)-4H-1,2,4-triazole-3-carboxamide]
< 1 | CCOc1cccc(-c2nnc(C(=O)NS(=O)(=O)Cc3ccccc3)n2-c2c(OC)cccc2OC)n1 [Example 2, N-(benzylsulfonyl)-4-(2,6-dimethoxyphenyl)-5-(6-ethoxypyridin-2-yl)-4H-1,2,4-triazole-3-carboxamide]
< 1 | CCOc1cccc(-c2nnc(C(=O)NS(=O)(=O)C(C)Cc3ccccc3)n2-c2c(OC)cccc2OC)n1 (centres unmarked) [Example 57, 4-(2,6-Dimethoxyphenyl)-5-(6-ethoxypyridin-2-yl)-N-((1-phenylpropan-2-yl)sulfonyl)-4H-1,2,4-triazole-3-carboxamide]
< 1 | CCOc1cccc(-c2nnc(C(=O)NS(=O)(=O)Cc3ncccc3F)n2-c2c(OC)cccc2OC)n1 [Example 52, 4-(2,6-Dimethoxyphenyl)-5-(6-ethoxypyridin-2-yl)-N-(((3-fluoropyridin-2-yl)methyl)sulfonyl)-4H-1,2,4-triazole-3-carboxamide]
< 1 | CCOc1cccc(-c2nnc(C(=O)NS(=O)(=O)Cc3ccccc3F)n2-c2c(OC)cccc2OC)n1 [Example 53, 4-(2,6-Dimethoxyphenyl)-5-(6-ethoxypyridin-2-yl)-N-((2-fluorobenzyl)sulfonyl)-4H-1,2,4-triazole-3-carboxamide]
